Data reported in patent US5447957A, “Anti-inflammatory compounds” (SmithKline Beecham Corp., priority 1994, dated 1995).
pIC50: −log10 of the molar value. Where two headings read alike, the source gives them in different places.

Key:
CoA-IT = assay: Assay (b): CoA-IT activity in U937 cell microsomes; type: biochemical, human; conditions: for inhibition of CoA-IT activity in the microsomal CoA-IT assay: generally at 50 μM or less
From the text: Assay (b): CoA-IT Activity
The following is a method to measure CoA-IT activity and the effects of compounds on CoA-IT activity. The assay is based upon mixing cellular material containing CoA-IT activity with a stable lyso phospholipid such as […] and measuring the production of phospholipid product such as […] occurring in the absence of added CoA or CoA-fatty acids.
Any inflammatory cell that contains high levels of CoA-IT activity can be used, such as neutrophils, macrophages or cell lines such as U937 cells. […] Cells were grown without differentiation (basal state) by any agent, such as dimethyl sulfoxide. As used herein, "inflammatory cells" include, but are not limited to neutrophils, macrophages, monocytes, lymphocytes, eosinophils, basophils, and mast cells.
Microsomes were prepared using standard techniques. In this case, cells were washed with a buffer of 250 mM sucrose, 10 mM Tris, 1 mM EGTA, 1 mM MgCl2, pH 7.4 and ruptured by N2 cavitation (750 psi, 10 minutes). The ruptured cells were centrifuged 1000× g, 5 minutes. The resulting supernatant was centrifuged at 20,000×g,~20 minutes. Microsomes were prepared from this supernatant by centrifugation at 100,000× g, 60 minutes. The resulting pellet was washed once with assay buffer (150 mM NaCl, 10 mM Na2 KPO4, 1 mM EGTA, pH 7.4), recentrifuged and the pellet resuspended in assay buffer (4-20 mg protein/ml) and was stored at -80° C. until assayed.
CoA-IT activity was measured in 1.5 ml centrifuge tubes in a total volume of 100 ul. Microsomes were diluted in assay buffer to the desired protein concentration (6-20 ug/tube). The reaction was initiated by addition of [3H] 1-alkyl-2-lyso-sn-glycero-3-phosphocholine (GPC)(~0.1 uCi/tube) and 1 μM final cold 1-alkyl-2-lyso-GPC in assay buffer with 0.25 mg/ml fatty acid-poor bovine serumalbumin (BSA) (Calbiochem, La Jolla, Calif.). [3H]1-alkyl-2-lyso-GPC, approximately 50 Ci/mmol, was from NEN-Dupont (Boston, Mass.) and cold 1-alkyl-2-lyso-GPC was from Biomol (Plymouth Meeting, Penn.). Microsomes were pretreated with desired agents for the desired time (10 minutes) before the addition of [3H]1-alkyl-2-lyso-GPC. The reaction was run for the desired time (10 minutes) at 37° C. The reaction was stopped and the lipids extracted by addition of 100 ul of chloroform:methanol (1:2, v/v) followed by 100 ul of chloroform and 100 ul of 1M KCI. The samples were vortexed and centrifuged at high speed in a microfuge for 2-3 minutes. An aliquot of the chloroform-extracted materials were separated, usually by TLC in chloroform/methanol/acetic acid/water (50:25:8:4, v/v), visualized by radioscanning (Bioscan) and the product, [3H] 1-alkyl-2-acyl-GPC, was scraped and quantified by liquid scintillation spectroscopy. […] Other methods can be used to separate substrate from product, including but not limited to column chromatography, affinity chromatography and post reaction derivitization.

human monocytes = assay: Assay (f): stimulated eicosanoid (PGE2, LTC4) release by human monocytes; type: cell-based; conditions: Monocyte, 0.25 h, A23187 1 μM, 15 min
Experimental: Assay (f): Measurement of stimulated eicosanoid release by human monocytes.
Leukocyte-rich leukopaks obtained from Biological Specialties (Lansdale, Pa.) were collected from male volunteers who were not taking anti-inflammatory drugs. Leukopaks were centrifuged (90× g for 15 min) twice to remove the platelet-rich plasma. The cell pellet was washed by centrifugation and resuspended in HBSS without Ca^2+ or Mg^2+. Histopaque 1077 was layered under the cell suspension and centrifuged at 400× g for 30 min to obtain the buffy coat. The interfacial buffy coat, containing monocytes and lymphocytes, was removed and saved. The buffy coat was washed twice with HBSS without Ca^2+ or Mg^2+ by centrifugation. The cell pellet (4-6×10^8 cells/30 mls) was resuspended in iso-osmotic media (RPMI-1640, 10% heat inactivated fetal bovine serum (FBS), 0.2 mM L-glutamine, 2.5 mM HEPES) and layered over an equal volume of 46% Percol mixture (10X PBS/Percol; 9.25/0.75) and 54% iso-osmotic media and centrifuged for 30 min at 1000× g (Marshall and Roshak, Biochem. Cell Biol. 71: 331-339, 1993). The monocyte population located at the interface of the Percoll gradient was removed and washed twice in HBSS without Ca^2+ or Mg^2+.
Monocytes (5×10^6 /ml) were incubated as a suspension in serum-free RPMI- 1640 medium containing the vehicle DMSO (<1%) or drug for 30 min at […] after which vehicle or stimuli was added for the indicated time. The stimulating agent is solubilized in DMSO and appropriate vehicle controls were included in all experiments. The amount of stimuli was chosen from the linear portion of a concentration versus product curve usually representing 60-80% maximal stimulation over the indicated incubation time at 37° C. (A23187, 1 μM,(15 min). The reaction was terminated by reduction of pH through addition of citric acid and centrifugation (10 min, 400× g, 4° C.). Cell viability was monitored before and after experiments using trypan blue exclusion. The cell-free media was decanted and stored at -70° C. until analyzed. Prostaglandin E2 and LTC4 were directly measured in cell-free media using enzyme immunoassay (EIA) kits purchased from Caymen Chemical Co. (Ann Arbor, Mich.). Sample or standard dilutions were made with appropriate media and analyzed in triplicate. Results were obtained by extrapolation from a standard curve prepared in the media and expressed as pg or ng/ml of sample.

[1] = system: TPA-induced Mouse Ear Inflammation; assay: Assay (g): TPA-induced Mouse Ear Inflammation (ear edema and MPO); type: in vivo; conditions: topical; doses dexamethasone 0.2, scalaradial 0.1, WY 50,295 0.3 (unit not given)
From the text: The ability of compounds that inhibit CoA-IT and/or PLA2 to affect in vivo inflammatory responses may be assessed. Inflammatory responses are induced in the mouse ear by the topical application of a pro-inflammatory agent, such as 12-0-tetradecanoylphorbol 13-acetate (assay g). This produces an edematous response, as measured by increases in ear thickness, as well as increased inflammatory cellular infiltrate, as measured by increases in myeloperoxidase activity (as described in the methods). To further validate the mechanism of action inflammation induced by the direct adminstration of arachidonic acid can be used. In this case compounds altering arachidonic acid mobilization or liberation should be with our effect.
(§1) Male Balb/c inbred mice were obtained from Charle River Breeding Laboratories (Kingston, N.Y.). Within a single experiment mice (22-25 g) were age-matched. These in vivo experiments typically involved use of 5-6 animals/group.
TPA (12-0-tetradecanoylphorbol 13-acetate) (Sigma Chemical Company) in acetone ([…]) was applied to the inner and outer surfaces of the left ear of BALB/c male mice. The thickness of both ears was then measured with a dial micrometer (Mitutoyo, Japan) at both 2 and 4 hours after treatment, and the data expressed as the change in thickness (10^-3 cm) between treated and untreated ears. […] After measuring the edema, the inflammed left ears were removed and stored at -70° C. until they were assayed for MPO (myeloperoxidase) activity where appropriate.
(§2) On the day of the assay, partially thawed ear tissues were minced and then homogenized (10% w/v) with a Tissumizer homogenizer (Tekmar Co.) in 50 mM phosphate buffer (pH 6) containing 0.5% HTAB. The tissue homogenates were taken through three cycles of freeze-thaw, followed by brief sonication (10 sec). The method of Bradley et al. was used with modifications as described. The appearance of a colored product from the MPO-dependent reaction of o-dianisidine (0.167 mg/ml; Sigma) and hydrogen peroxide (0.0005%; Sigma) was measured spectrophotometrically at 460 nm. Supernatant MPO activity was quantified kinetically (change in absorbance measured over 3 min, sampled at 15-sec intervals) using a Beckman DU-7 spectrophotometer and a Kinetics Analysis package (Beckman Instruments, Inc.). One unit of MPO activity is defined as that degrading one micromole of peroxide per minute at 25° C.
Statistical analysis was done using Student's "t" test. The ED50 are values which cause a 50% inhibition of the inflammatory response and are calculated by regression analysis of the dose response data.

[2] = system: Arachidonic acid induced ear inflammation; assay: Assay (h): Arachidonic acid induced ear inflammation (ear edema and MPO); type: in vivo, mouse; conditions: topical; doses dexamethasone 0.2, scalaradial 0.1, WY 50,295 0.3 (unit not given)
Experimental: as §1
as §2, with “The appearance of a colored product from the MPO-dependent reaction of o-dianisidine (0.167 mg/ml; Sigma) and hydrogen peroxide (0.0005%; Sigma) was measured spectrophotometrically at 460 nm.” left out
Arachidonic acid is dissolved in acetone (1 mg/ear) to the left ear of BALB/c male mice. The thickness of both ears was measured with a constant pressure thickness guage 1 hour after treatment and the data expressed as the change in thickness between treated and untreated ears. Test compounds or vehicle are given at the time of AA applciation. The inflammatory cell infiltration is measured by MPO activity as described above in the TPA ear edema assay. After the edema measurements are made, the inflamed ears are removed and assayed for MPO activity.

In the case of `CCCCCCCCNC(=O)Nc1cc(C(F)(F)F)ccc1Oc1ccccc1C(=O)O` [2-[2-[3-(Octyl)ureido]-4-trifluoromethylphenoxy]benzoic acid], the “inhibition of CoA-IT activity in the microsomal CoA-IT assay” value (from here on “inhibition of CoA-IT activity”) (CoA-IT) was “inhibit CoA-IT activity”.

For `O=S1(=O)CCn2c1nc(-c1ccc(F)cc1)c2-c1ccncc1` [6-(4'-Fluorophenyl)-5-(4-pyridyl)2,3-dihydroimidzo-[2,1-b]thiazole-dioxide], the “effect on CoA-IT activity” value (CoA-IT; at concentrations up to 100 μM) was “no effect”.

For `Fc1ccc(-c2nc3n(c2-c2ccncc2)CCS3)cc1` [6-(4'-Fluorophenyl)-5-(4-pyridyl)-2,3-dihydroimidzo-[2,1-b]thiazole], the “effect on CoA-IT activity” value (CoA-IT; at concentrations up to 100 μM) was “no effect”.

For `Cc1cc(C(C)(C)C)c(O)c(C(C)(C)C)c1` [BHT], the “effect on CoA-IT activity” value (CoA-IT; at concentrations up to 100 μM) was “no effect”.

For `CN(C)CCC=C1c2ccccc2COc2ccccc21` [Doxepine], the “effect on CoA-IT activity” value (CoA-IT; at concentrations up to 100 μM) was “did not inhibit”.

`O=C(Nc1ccc(Br)cc1)Nc1cc(C(F)(F)F)ccc1Oc1ccccc1C(=O)O` [Example 1, 2-[2-[3-(4-Bromophenyl)ureido]-4-(trifluoromethyl)phenoxy]benzoic acid] was tested, and the “inhibition of CoA-IT activity” value (CoA-IT) was “inhibit CoA-IT activity”, the pIC50 (human monocytes; read-out: IC50 for LTC4 release) was 6.52 and the pIC50 (human monocytes; read-out: IC50 of PGE2 release) was < 5.52.

`CC(C)(C)CC(C)(C)c1ccc(Oc2ccc(C(F)(F)F)cc2NC(=O)Nc2cc(C(F)(F)F)cc(C(F)(F)F)c2)c(C(=O)O)c1` [Example 4, 2-[2-[3-[3,5-Bis (trifluoromethyl)phenyl]ureido]-4-trifluoromethylphenoxy]-5-(1,1,3,3-tetramethylbutyl)benzoic acid] was tested, and the “inhibition of CoA-IT activity” value (CoA-IT) was “inhibit CoA-IT activity”.

In the case of `CCC(C)(C)c1ccc(Oc2ccc(C(F)(F)F)cc2NC(=O)Nc2cc(C(F)(F)F)cc(C(F)(F)F)c2)c(C(=O)O)c1` [Example 5, 2-[2-[3-[3,5-Bis (trifluoromethyl)phenyl]ureido]-4-trifluoromethylphenoxy]-5-(1,1,-dimethylpropyl)benzoic acid], the “inhibition of CoA-IT activity” value (CoA-IT) was “inhibit CoA-IT activity”.

For `COC(=O)c1ccccc1Oc1ccc(C(F)(F)F)cc1NC(=O)Nc1cc(C(F)(F)F)cc(C(F)(F)F)c1` [Example 8, Methyl 2-[2-[3-[3,5-Bis(trifluoromethyl)phenyl]ureido]-4-trifluoromethylphenoxy]benzoate], the “inhibition of CoA-IT activity” value (CoA-IT) was “inhibit CoA-IT activity”.

`C[C@H](C(=O)O)c1ccc2cc(OCc3ccc4ccccc4n3)ccc2c1` [WY 50,295] was tested, and the “TPA % change in edema” value [1] was -18%, the “AA % change in edema” value [2] was -50% and the “change in MPO for AA” value [2] was -90.

With `COc1cccc2c1cc([N+](=O)[O-])c1c(C(=O)O)cc3c(c12)OCO3` [aristolochic acid] the “effect on CoA-IT activity” value (CoA-IT; at concentrations up to 500 μM) was “no effect”.

`C[C@@H]1C[C@H]2[C@@H]3CCC4=CC(=O)C=C[C@]4(C)[C@@]3(F)[C@@H](O)C[C@]2(C)[C@@]1(O)C(=O)CO` [dexamethasone] was tested, and the “TPA % change in edema” value [1] was -50%, the “change in MPO for TPA model” value [1] was -54 and the “AA % change in edema” value [2] was -10%. For the same compound, the “change in MPO for AA” value [2] was 0.

For `COc1ccc2c(c1)c(CC(=O)O)c(C)n2C(=O)c1ccc(Cl)cc1` [indomethicin], the “effect on CoA-IT activity” value (CoA-IT; at concentrations up to 100 μM) was “no effect”.

In the case of `COc1ccc2cc([C@H](C)C(=O)O)ccc2c1` [naproxen], the “effect on CoA-IT activity” value (CoA-IT; at concentrations up to 100 μM) was “no effect”.

`CCN(CC)CCCC(C)Nc1c2ccc(Cl)cc2nc2ccc(OC)cc12` (centres unmarked) [quinacrine] was tested, and the “effect on CoA-IT activity” value (CoA-IT; at concentrations up to 500 μM) was “no effect”.

`CC(=O)O[C@H]1C[C@@H]2[C@@]3(C)CCCC(C)(C)[C@@H]3CC[C@@]2(C)[C@@H]2CC=C(C=O)[C@H](C=O)[C@@]12C` [scalaradial] was tested, and the “AA % change in edema” value [2] was -11%.
